According to patent publication US20240325369A1 (priority 2021, published 2024):
Where “and” joins values, the source holds several entries; their conditions need not be identical. Equal values may be shown once. Read-outs that look alike come from different tables or passages of the source.

System: metastatic castration-resistant prostate cancer (mCRPC) with DNA-repair anomalies
Protocol: The planned sample size was approximately 120 subjects with measurable disease who were biomarker-positive (approximately 75 subjects with DNA repair anomalies in BRCA [BRCA1 or BRCA2] and approximately 45 subjects with biallelic DNA-repair anomalies in non-BRCA [ATM, FANCA, PALB2, CHEK2, BRIP1, or HDAC2]).
Efficacy objectives were evaluated for subjects meeting the biomarker selection criteria described in the protocol. All subjects were monitored for safety during the study period, and up to 30 days after the last dose of study drug. Treatment continued until disease progression, unacceptable toxicity, death, or termination of the study by the sponsor.
Diagnosis and Main Criteria for Inclusion: The target population consisted of male subjects over the age of 18 years with mCRPC and DNA-repair anomalies (biallelic mutations and germline pathogenic mutations only for BRCA1 or BRCA2 mutations) who had received at least 1 prior taxane-based chemotherapy and at least 1 prior AR targeted therapy (second-generation or later). Subjects were asked to provide a tumor tissue sample (archival or recently collected, if available), and a blood sample for analysis of DNA-repair anomalies using a sponsor-validated assay.
Criteria for Evaluation: Efficacy assessments included chest, abdomen, and pelvis CT or MRI scans and whole-body bone scans (^99mTc) to evaluate objective response and disease progression.
The primary endpoint was ORR and summarized for the BRCA analysis set along with the 95% 2-sided exact CI. In addition, the counts and percentage of subjects in each response category (CR. PR, etc.) were tabulated. ORR in non-BRCA subjects was analyzed in the same way.
Descriptive summaries of CTC response were generated for BRCA and non-BRCA analysis sets, measurable and non-measurable subgroups and tabulated with its 2-sided 95% exact CI. Waterfall plots of percent change in CTC were also presented, showing the percentage change in CTC counts from baseline to 8 weeks, as well as maximal CTC count declines. All time to event secondary endpoints were evaluated using Kaplan-Meier method for BRCA and non-BRCA analysis sets. Median time to event and the corresponding 95% CI were provided. Descriptive summaries were provided for BRCA and non-BRCA analysis sets.
Time to degradation was determined using the following meaningful change threshold values: FACT-P Total (10-point reduction from baseline), EQ-5D-5L Index (0.09-point reduction from baseline). EQ-5D-5L VAS (10-point reduction from baseline), and BPI SF worst pain intensity item (30% reduction from baseline).
The primary endpoint was ORR, defined as the proportion of subjects with BRCA DNA-repair anomalies and measurable disease whose best response was either CR or PR as defined by RECIST 1.1 (Eisenhauer et al 2009) and who had no evidence of bone progression according to the PCWG3 criteria (Scher et al 2016).
ORR final analysis was performed approximately 6 months from Cycle 1 Day 1 of the last subject with a BRCA DNA-repair anomaly and measurable disease. Objective response as determined by investigator assessment was considered as the primary analysis.
Subjects who discontinued the study without a response assessment were considered as non-responders in the analysis. The objective response rate was calculated and its 2-sided 95% exact CI presented. In addition, the counts and percentage of subjects in each response category (CR, PR, etc.) were tabulated.
The following analyses of CTC response were performed for BRCA and non-BRCA analysis sets, measurable and non-measurable subgroups: • Descriptive summaries • CTC response rate was tabulated with its 2-sided 95% exact CI
All time to event secondary endpoints were evaluated using Kaplan-Meier method for BRCA and non-BRCA analysis sets. Median time to event and the corresponding 95% CI were provided. Descriptive summaries were provided for BRCA and non-BRCA analysis sets.

[1] = ALL, ITT (N=223), 300 mg once daily
[2] = ALL, ITT (N=223), 300 mg once daily, listed as niraparib
[3] = ALL, ITT (N=223), Kaplan-Meier, 300 mg once daily
[4] = ALL, ITT with baseline CTC >0 (N=202), 300 mg once daily
[5] = ALL, measurable ITT (N=123), 300 mg once daily
[6] = ALL, measurable ITT responders (N=31), 300 mg once daily
[7] = ALL, measurable ITT responders (N=31), Kaplan-Meier, 300 mg once daily
[8] = BRCA (n = 142), 300 mg once daily
[9] = BRCA, ITT (N=142), 300 mg once daily
[10] = BRCA, ITT (N=142), 300 mg once daily, listed as niraparib
[11] = BRCA, ITT (N=142), Kaplan-Meier, 300 mg once daily

NC(=O)c1cccc2cn(-c3ccc([C@@H]4CCCNC4)cc3)nc12 [Niraparib, 2-[4-[(3S)-piperidin-3-yl]phenyl]-2H-indazole-7-carboxamide]
Duration of complete response in individual subjects (2 BRCA subjects with measurable disease and complete response, 300 mg once daily): 9.7 months and 9.5 months
Time to PSA progression: 6-month event-free rate [1]: 0.328
Time to PSA progression: 12-month event-free rate [1]: 0.053
Time to PSA progression: Censored, % of subjects [1]: (44.4%)
Time to PSA progression: Censored, number of subjects [1]: 99
Time to PSA progression: Event, % of subjects [1]: (55.6%)
Time to PSA progression: Event, number of subjects [1]: 124
Time to radiographic progression: 6-month event-free rate [1]: 0.494
Time to radiographic progression: 12-month event-free rate [1]: 0.170
Time to radiographic progression: 18-month event-free rate [1]: 0.034
Time to radiographic progression: Censored, % of subjects [1]: (39.9%)
Time to radiographic progression: Censored, number of subjects [1]: 89
Time to radiographic progression: Event, % of subjects [1]: (60.1%)
Time to radiographic progression: Event, number of subjects [1]: 134
Time to symptomatic skeletal event: 6-month event-free rate [1]: 0.830
Time to symptomatic skeletal event: 12-month event-free rate [1]: 0.511
Time to symptomatic skeletal event: 18-month event-free rate [1]: 0.297
Time to symptomatic skeletal event: 24-month event-free rate [1]: 0.297
Time to symptomatic skeletal event: Censored, % of subjects [1]: (70.9%)
Time to symptomatic skeletal event: Censored, number of subjects [1]: 158
Time to symptomatic skeletal event: Event, % of subjects [1]: (29.1%)
Time to symptomatic skeletal event: Event, number of subjects [1]: 65
rPFS: 6-month event-free rate [1]: 0.475
rPFS: 12-month event-free rate [1]: 0.155
rPFS: 18-month event-free rate [1]: 0.031
rPFS: Censored, % of subjects [1]: (35.4%)
rPFS: Censored, number of subjects [1]: 79
rPFS: Event, % of subjects [1]: (64.6%)
rPFS: Event, number of subjects [1]: 144
Time to PSA progression: Event, % of subjects [2]: 56%
Time to radiographic progression: Event, % of subjects [2]: 60%
Time to symptomatic skeletal event: Event, % of subjects [2]: 29%
Time to symptomatic skeletal event: Event, number of subjects [2]: Sixty-five
rPFS: Event, % of subjects [2]: 65%
Time to PSA progression: time to event, 25th percentile [3]: 2.83 months
Time to PSA progression: time to event, Median [3]: 4.63 months
Time to radiographic progression: time to event, 25th percentile [3]: 2.76 months
Time to radiographic progression: time to event, 75th percentile [3]: 11.07 months
Time to radiographic progression: time to event, Median [3]: 5.78 months
Time to symptomatic skeletal event (SSE): time to event, Median [3]: 12.88 months
Time to symptomatic skeletal event: time to event, 25th percentile [3]: 6.97 months
rPFS: time to event, 25th percentile [3]: 2.07 months
rPFS: time to event, 75th percentile [3]: 11.01 months
CTC Response (CTC = 0 at week 8), % of subjects [4]: (18.3%)
CTC Response (CTC = 0 at week 8), number of subjects [4]: 37
Best Overall Response: Complete Response (CR), % of subjects [5]: 1.6%
Best Overall Response: Complete Response (CR), number of subjects [5]: 2
Best Overall Response: Not Available (NA), % of subjects [5]: 12.2%
Best Overall Response: Not Available (NA), number of subjects [5]: 15
Best Overall Response: Partial Response (PR), % of subjects [5]: 23.6%
Best Overall Response: Partial Response (PR), number of subjects [5]: 29
Best Overall Response: Progressive Disease (PD), % of subjects [5]: 25.2%
Best Overall Response: Progressive Disease (PD), number of subjects [5]: 31
Best Overall Response: Stable Disease (SD), % of subjects [5]: 37.4%
Best Overall Response: Stable Disease (SD), number of subjects [5]: 46
ORR (objective response rate, RECIST 1.1, no bone progression per PCWG3), % of subjects [5]: 25.2%
ORR (objective response rate, RECIST 1.1, no bone progression per PCWG3), number of subjects [5]: 31
Objective response confirmed: Complete Response (CR), % of subjects [5]: 1.6%
Objective response confirmed: Complete Response (CR), number of subjects [5]: 2
Objective response confirmed: Partial Response (PR), % of subjects [5]: 23.6%
Objective response confirmed: Partial Response (PR), number of subjects [5]: 29
Duration of objective response: 6-month event-free rate [6]: 0.471
Duration of objective response: 12-month event-free rate [6]: 0.000
Duration of objective response: 18-month event-free rate [6]: 0.000
Duration of objective response: 24-month event-free rate [6]: 0.000
Duration of objective response: Censored, % of subjects [6]: (22.6%)
Duration of objective response: Censored, number of subjects [6]: 7
Duration of objective response: Event, % of subjects [6]: (77.4%)
Duration of objective response: Event, number of subjects [6]: 24
Duration of objective response: time to event, 25th percentile [7]: 3.75 months
Duration of objective response: time to event, 75th percentile [7]: 7.20 months
Duration of objective response: time to event, Median [7]: 5.55 months
CRR (composite response rate), % of subjects [8]: 57.7%
CRR (composite response rate), number of subjects [8]: 82
PSA50 (≥50% decline in prostate-specific antigen), % of subjects [8]: 43.0%
PSA50 (≥50% decline in prostate-specific antigen), number of subjects [8]: 61
Median rPFS in the BRCA cohort relative to the non-BRCA cohort (BRCA vs non-BRCA cohort): approximately double
Time to PSA progression: 6-month event-free rate [9]: 0.393
Time to PSA progression: 12-month event-free rate [9]: 0.067
Time to PSA progression: Censored, % of subjects [9]: (40.1%)
Time to PSA progression: Event, % of subjects [9]: (59.9%)
Time to radiographic progression: 6-month event-free rate [9]: 0.593
Time to radiographic progression: 12-month event-free rate [9]: 0.234
Time to radiographic progression: 18-month event-free rate [9]: 0.046
Time to radiographic progression: Censored, % of subjects [9]: (43.0%)
Time to radiographic progression: Censored, number of subjects [9]: 61
Time to radiographic progression: Event, % of subjects [9]: (57.0%)
Time to radiographic progression: Event, number of subjects [9]: 81
Time to symptomatic skeletal event: 6-month event-free rate [9]: 0.844
Time to symptomatic skeletal event: 12-month event-free rate [9]: 0.543
Time to symptomatic skeletal event: 18-month event-free rate [9]: 0.323
Time to symptomatic skeletal event: 24-month event-free rate [9]: 0.323
Time to symptomatic skeletal event: Censored, % of subjects [9]: (67.6%)
Time to symptomatic skeletal event: Censored, number of subjects [9]: 96
Time to symptomatic skeletal event: Event, % of subjects [9]: (32.4%)
rPFS: 6-month event-free rate [9]: 0.572
rPFS: 12-month event-free rate [9]: 0.215
rPFS: 18-month event-free rate [9]: 0.043
rPFS: Censored, % of subjects [9]: (38.7%)
rPFS: Censored, number of subjects [9]: 55
rPFS: Event, % of subjects [9]: (61.3%)
rPFS: Event, number of subjects [9]: 87
Time to PSA progression: Event, % of subjects [10]: 60%
rPFS: Event, % of subjects [10]: 61%
Time to PSA progression: time to event, 25th percentile [11]: 3.48 months
Time to PSA progression: time to event, 75th percentile [11]: 11.07 months
